Assay results as given in the supplement of paper PMC11451515.

System: P12-Ichikawa
Assay: cell viability relative to DMSO control; higher = less cytotoxic
Details: 48 h
Method in brief: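 NOMO1 or SEM cells were plated at 500 cells/well and P12-Ichikawa cells at 1000 cells/well in 1536-well plates (5 μl), after each leukemia line had been adapted for at least four passages in each medium. Pin dosing delivered library compounds in DMSO at 11 threefold concentrations, 47 μM to 0.79 nM. CellTiter-Glo One luminescence was read after 48 h at 37°C. Viability is reported as a per-plate percentage of DMSO wells, with cell-free wells as background.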

[1] = HPLM + 10% dialyzed FBS, 0.000781 µM
[2] = HPLM + 10% dialyzed FBS, 0.00234 µM
[3] = HPLM + 10% dialyzed FBS, 0.00702 µM
[4] = HPLM + 10% dialyzed FBS, 0.0211 µM
[5] = HPLM + 10% dialyzed FBS, 0.0632 µM
[6] = HPLM + 10% dialyzed FBS, 0.19 µM
[7] = HPLM + 10% dialyzed FBS, 0.569 µM
[8] = HPLM + 10% dialyzed FBS, 1.71 µM
[9] = HPLM + 10% dialyzed FBS, 5.12 µM
[10] = HPLM + 10% dialyzed FBS, 15.4 µM
[11] = HPLM + 10% dialyzed FBS, 46.1 µM
[12] = RPMI 5 mM glucose + 10% FBS, 0.000781 µM
[13] = RPMI 5 mM glucose + 10% FBS, 0.00234 µM
[14] = RPMI 5 mM glucose + 10% FBS, 0.00702 µM
[15] = RPMI 5 mM glucose + 10% FBS, 0.0211 µM
[16] = RPMI 5 mM glucose + 10% FBS, 0.0632 µM
[17] = RPMI 5 mM glucose + 10% FBS, 0.19 µM
[18] = RPMI 5 mM glucose + 10% FBS, 0.569 µM
[19] = RPMI 5 mM glucose + 10% FBS, 1.71 µM
[20] = RPMI 5 mM glucose + 10% FBS, 5.12 µM
[21] = RPMI 5 mM glucose + 10% FBS, 15.4 µM
[22] = RPMI 5 mM glucose + 10% FBS, 46.1 µM
[23] = RPMI 5 mM glucose + 10% dialyzed FBS, 0.000781 µM
[24] = RPMI 5 mM glucose + 10% dialyzed FBS, 0.00234 µM
[25] = RPMI 5 mM glucose + 10% dialyzed FBS, 0.00702 µM
[26] = RPMI 5 mM glucose + 10% dialyzed FBS, 0.0211 µM
[27] = RPMI 5 mM glucose + 10% dialyzed FBS, 0.0632 µM
[28] = RPMI 5 mM glucose + 10% dialyzed FBS, 0.19 µM
[29] = RPMI 5 mM glucose + 10% dialyzed FBS, 0.569 µM
[30] = RPMI 5 mM glucose + 10% dialyzed FBS, 1.71 µM
[31] = RPMI 5 mM glucose + 10% dialyzed FBS, 5.12 µM
[32] = RPMI 5 mM glucose + 10% dialyzed FBS, 15.4 µM
[33] = RPMI 5 mM glucose + 10% dialyzed FBS, 46.1 µM

Row | Structure (SMILES) | cell viability [1] [%] | cell viability [2] [%] | cell viability [3] [%] | cell viability [4] [%] | cell viability [5] [%] | cell viability [6] [%] | cell viability [7] [%] | cell viability [8] [%] | cell viability [9] [%] | cell viability [10] [%] | cell viability [11] [%] | cell viability [12] [%] | cell viability [13] [%] | cell viability [14] [%] | cell viability [15] [%] | cell viability [16] [%] | cell viability [17] [%] | cell viability [18] [%] | cell viability [19] [%] | cell viability [20] [%] | cell viability [21] [%] | cell viability [22] [%] | cell viability [23] [%] | cell viability [24] [%] | cell viability [25] [%] | cell viability [26] [%] | cell viability [27] [%] | cell viability [28] [%] | cell viability [29] [%] | cell viability [30] [%] | cell viability [31] [%] | cell viability [32] [%] | cell viability [33] [%]
1 | COC1=CC=C2/C3=N/CCN3\C(=N/C2=C1OC)NC(=O)C4=CC=CN=C4 | 113 | 124 | 110 | 117 | 129 | 118 | 113 | 123 | 108 | 92.6 | 89.7 | 108 | 110 | 115 | 108 | 114 | 115 | 104 | 102 | 78.8 | 73.4 | 58 | 111 | 120 | 115 | 119 | 115 | 117 | 111 | 105 | 97.3 | 86.1 | 65.9
2 | CC(C)[C@H](N)C(=O)OCCOC[N]1C=NC2=C1\N=C(N)/NC2=O | 124 | 124 | 121 | 125 | 128 | 126 | 131 | 131 | 123 | 123 | 119 | 123 | 135 | 122 | 121 | 128 | 150 | 146 | 152 | 140 | 132 | 146 | – | – | – | – | – | – | – | – | – | – | –
3 | Cn1cc(C[C@@H](N)C(=O)O)c2ccccc21 | 103 | 109 | 106 | 104 | 105 | 109 | 105 | 102 | 100 | 98.2 | 97.2 | 98.8 | 107 | 104 | 101 | 99.6 | 106 | 107 | 97.1 | 99.8 | 100 | 87.1 | 91.3 | 101 | 100 | 98.3 | 105 | 106 | 96.5 | 100 | 95.8 | 93 | 91.9
4 | COc1cc(/C=C/C(=O)O)ccc1O | 89.1 | 93 | 91.4 | 104 | 95.7 | 102 | 107 | 99 | 103 | 106 | 107 | 90.9 | 88.5 | 91.9 | 84.4 | 88.5 | 92 | 99.4 | 88.4 | 79.1 | 97.1 | 101 | 88.1 | 89.8 | 88.7 | 94.1 | 91.5 | 91.1 | 96.3 | 93.5 | 91.1 | 94.1 | 99
5 | CN(C)C(=O)C(CCN1CCC(O)(c2ccc(Cl)cc2)CC1)(c1ccccc1)c1ccccc1 | 122 | 123 | 133 | 122 | 129 | 125 | 127 | 116 | 127 | 107 | 69.2 | – | – | – | – | – | – | – | – | – | – | – | – | – | – | – | – | – | – | – | – | – | –
6 | Cc1c[nH]c(-c2cnc(NCCNc3ccc(C#N)cn3)nc2-c2ccc(Cl)cc2Cl)n1 | 75.2 | 83.3 | 80.6 | 88.1 | 87.7 | 88.9 | 88.3 | 94.3 | 91.2 | 91.1 | 16.4 | 67.6 | 82.5 | 77.7 | 78.7 | 79.9 | 80.6 | 78.9 | 83.5 | 75 | 89.1 | 24.8 | 75.1 | 85.3 | 80.2 | 80 | 81 | 82.2 | 78.8 | 80.6 | 84.1 | 92.9 | 29.9
7 | C=CCc1ccc(O)c(-c2ccc(O)c(CC=C)c2)c1 | 112 | 113 | – | 113 | 119 | 28.9 | 13.7 | – | 9.66 | 11.3 | 18.2 | 109 | 110 | 110 | 113 | 120 | 120 | 118 | 17.5 | 14.9 | 13.7 | 11 | 105 | 116 | 113 | 115 | 122 | 113 | 63.9 | 25.6 | 18.4 | 21.3 | 21.2
8 | OC(CN1CCN(c2cccc(Cl)c2)CC1)C(c1ccccc1)c1ccccc1 (stereo not drawn) | 109 | 114 | 119 | 111 | 120 | 23.4 | 17.3 | 4.64 | 4.77 | 4.92 | 5.05 | 112 | 117 | 114 | 115 | 123 | 126 | 114 | 7.71 | 6.13 | 5.76 | 5.28 | 102 | 112 | 111 | 112 | 118 | 105 | 84.9 | 4.96 | 5.14 | 4.91 | 4.74
9 | Cc1noc(-c2ccc(CSCCC(=O)O)cc2)c1NC(=O)OC(C)c1ccccc1Cl (stereo not drawn) | 98.3 | 99.3 | 97.1 | 102 | 95.4 | 101 | 101 | 107 | 99 | 88.6 | 70.2 | 88.3 | 89.1 | 80.9 | 87.4 | 86.4 | 95.7 | 97.3 | 94.7 | 93.1 | 87.3 | 85.3 | 90.3 | 90 | 91.7 | 96.7 | 91.6 | 102 | 84.8 | 89.1 | 97.9 | 89.3 | 79.5
10 | COc1cccc2c1[C@]13CCN(CC4CC4)[C@H](C2)[C@]1(OC)CCC(=O)C3 | 99.7 | 120 | 66.7 | 124 | 125 | 122 | 121 | 121 | 127 | 116 | 119 | 94.6 | 113 | 56.9 | 110 | 136 | 129 | 127 | 121 | 123 | 117 | 123 | 92.9 | 120 | 68.7 | 120 | 123 | 127 | 133 | 118 | 122 | 127 | 116
11 | C[C@H]1COC/2=C1/C(=O)C(=O)C3=C4CCCC(C)(C)C4=CC=C23 | 112 | 118 | 121 | 129 | 127 | 134 | 137 | 124 | 129 | 118 | 94 | – | – | – | – | – | – | – | – | – | – | – | – | – | – | – | – | – | – | – | – | – | –
12 | Cc1c(C)c2c(c(C)c1O)CCC(C)(COc1ccc(CC3SC(=O)NC3=O)cc1)O2 (stereo not drawn) | 112 | 127 | 121 | 126 | 126 | 127 | 131 | 136 | 129 | 118 | 109 | – | – | – | – | – | – | – | – | – | – | – | – | – | – | – | – | – | – | – | – | – | –
13 | CC(C)Oc1ccc(C(=O)N[C@H](CNC(=O)CN(C)C)Cc2ccc(-c3cn4cccc([C@H](C)O)c4n3)cc2)cc1Cl | 121 | 115 | 118 | 115 | 106 | 101 | 107 | 78.1 | 48.3 | 45.8 | 54.2 | 117 | 120 | 118 | 111 | 115 | 110 | 103 | 41.2 | 25.3 | 23 | 26.6 | 108 | 117 | 112 | 110 | 102 | 101 | 97.9 | 63 | 38.4 | 31.6 | 32.7
14 | C1CCN2C[C@H]3C[C@H](\C=C/4CCCN[C@@H]34)[C@H]2C1 | 105 | 108 | 99.3 | 103 | 104 | 110 | 110 | 115 | 111 | 108 | 11.1 | 110 | 115 | 121 | 127 | 117 | 123 | 122 | 116 | 115 | 134 | 20.8 | 113 | 104 | 101 | 112 | 112 | 109 | 108 | 97.6 | 112 | 108 | 19.2
15 | Nc1ncnc2c1nc(Cl)n2[C@@H]1O[C@H](CO)[C@@H](O)[C@H]1O | 123 | 125 | 125 | 121 | 121 | 122 | 126 | 125 | 118 | 103 | 58.7 | – | – | – | – | – | – | – | – | – | – | – | – | – | – | – | – | – | – | – | – | – | –
16 | Nc1nc(Cl)nc2c1ncn2[C@@H]1O[C@H](CO)[C@@H](O)[C@@H]1F | 18.2 | 55.1 | 15.7 | 16.3 | 18.8 | 15.4 | 15.2 | 11.8 | 13.5 | 10.6 | 8.95 | 32.2 | 50 | 15.6 | 14.8 | 16.3 | 13.6 | 10.6 | 9.04 | 8.02 | 9.03 | 5.68 | 28.4 | 37.2 | 24.4 | 23.5 | 24.7 | 24.6 | 21.2 | 24.3 | 19 | 20.3 | 17.5
17 | C#CCN[C@@H]1CCc2ccccc21.CS(=O)(=O)O | 105 | 100 | 91 | 105 | 103 | 95 | 98.2 | 100 | 91.2 | 93.5 | 86.4 | 97.6 | 93.6 | 90.5 | 95.2 | 101 | 103 | 93.7 | 85.6 | 95.9 | 92.9 | 84.2 | 89.5 | 91.9 | 94.9 | 88.8 | 101 | 99.1 | 97 | 85.5 | 83.6 | 83.7 | 83.5
18 | CC(C)(O)/C=C\C(=O)[C@](C)(O)[C@H]1[C@H](O)C[C@]2(C)[C@@H]3CC=C4[C@@H](C=C(O)C(=O)C4(C)C)[C@]3(C)C(=O)C[C@@]12C | 94.8 | 106 | 103 | 99.6 | 99.7 | 50.9 | 15.1 | 18.4 | 21.6 | 12.9 | 4.2 | 113 | 105 | 111 | 107 | 97.9 | 47.3 | 12.4 | 15.1 | 17.1 | 6.22 | 2.85 | 93.9 | 98.5 | 93.9 | 104 | 102 | 43.8 | 14.6 | 17.9 | 20.9 | 6.49 | 3.06
